This is an account of results in publication PMC11672137, “High-Affinity Lectin Ligands Enable the Detection of Pathogenic Pseudomonas aeruginosa Biofilms: Implications for Diagnostics and Therapy” (JACS Au, 2024).

The subject of this test is P. aeruginosa PAO1 biofilms. The test can be described thus: In vitro biofilm staining under flow conditions, compound supplementation to the medium. The class given is cell-based, Pseudomonas aeruginosa. As to conditions: 3 mL/h. The procedure:
P. aeruginosa biofilms were grown under flow conditions and observed by fluorescence microscopy in analogy to Ghanbari et al.[66] To this end, P. aeruginosa PAO1 expressing the red fluorescent protein mCherry[56] was diluted to an OD600 nm of 0.1 and injected into the microfluidics device. After a 30-min settling period, biofilms were grown under a constant laminar flow rate of 3 mL/h per channel. Following 48 h of incubation at 30 °C, dense and mature P. aeruginosa PAO1 biofilms were observed, which were then further used for analysis of the imaging probes.
To circumvent these technical drawbacks, the addition of compounds to the medium reservoir and retention at the biofilm was pursued. Imaging compounds were added to the medium reservoirs at a concentration of 500 nM, which were continuously pumped (3 mL/h) through the flow cell for 4 h. Compound accumulation at mature P. aeruginosa biofilms was immediately analyzed using fluorescence microscopy. Afterwards, the medium was exchanged, and the biofilms were washed for 30 min (3 mL/h, no compound) to monitor the retention (Figure 5). Furthermore, an analysis using CLSM was also performed after 4 h of accumulation without washing (Figures 5 and S22).
Figure 5 Staining of P. aeruginosa PAO1 biofilms grown under flow conditions with compound supplementation to the medium. Biofilm staining with (A) fluorescein divalent probe 17, (B) fluorescein control 24, (C) BODIPY divalent probe 19, and (D) BDP FL azide control 18 was monitored after 4 h of accumulation under constant flow (3 mL/h) of LB media containing 500 nM of respective compound. Retention of imaging compounds is shown after a subsequent wash period for 30 min with medium (3 mL/h, no compound). Images were recorded by using a fluorescence microscope. CLSM was performed for (E) BODIPY divalent probe 19 and the control (F) BDP FL azide 18 after 4 h of accumulation. Green signal originates from fluorescently labeled probes 17 and 19 and controls 24 and 18. P. aeruginosa constitutively expressing mCherry from pMP7605^56 is shown in red. Z-Stack size, 2 μm. Scale bar = 50 μm.
In vitro biofilm staining under flow conditions
The flow cell experiment was set up in analogy to Ghanbari et al. and in this study, optimized and established for biofilm staining.25 In principle, the experiment is based on an inlet connected to a medium source, a peristaltic pump providing constant medium flow, a flow chamber enabling analysis of bacterial growth and an outlet (waste container/bottle).
The medium used in the flow system was LB diluted by factor 5 containing 60 µg/mL
Gm. Silicone tubings 1.6 mm (ibidi, Germany) were used transporting medium from inlet to the peristaltic pump (Watson-Marlow Fluid Technology Solutions). Stopper hoses (CarlRoth) placed in peristaltic pump were coupled to silicone tubes via connectors (ibidi, Germany).
Stopper hoses are connected to bubble traps (obtained by Claus Sternberg, DTU Copenhagen) via 0.8 mm silicone tubing (ibidi, Germany). Bubble traps were used to remove air from the medium flow and to avoid biofilm disruption. Downstream from the bubble traps, the flow cell (μ-Slide VI 0.4 ibiTreat, ibidi, Germany) was placed into the system and connected to 1.6 mm silicone tubes (ibidi, Germany). The outlet is leading the medium from flow chamber to a waste […]
In order to inoculate the flow cell with P. aeruginosa PAO1 mCherry (pMP7605)23 the silicone tubes upstream and downstream of the flow chamber were pinched off by using commercial plastic clamps. The medium flow was stopped and the flow cell was inoculated by injecting 300 µL of the bacterial suspension (OD600nm of 0.1) into the silicone tubing upstream of the flow chamber. For this, a cannula (0.30 x 12 mm, Sterican) was used. The injection point was sealed with silicone glue. After bacterial settling time of 30 min, the flow was started again and clamps were removed. Growth temperature was regulated by using a heat system (ibidi, […]
Germany). […]

Turning to `O=C(CCc1ccc(O[C@@H]2O[C@H](CO)[C@H](O)[C@H](O)[C@H]2O)cc1)Nc1ccc(CN(CCc2cn(CCOCCOCCOCCNC(=S)Nc3ccc4c(c3)C(=O)OC43c4ccc(O)cc4Oc4cc(O)ccc43)nn2)Cc2ccc(NC(=O)CCc3ccc(O[C@@H]4O[C@H](CO)[C@H](O)[C@H](O)[C@H]4O)cc3)cc2)cc1` [compound 17], the “Biofilm staining after accumulation” value (500 nM in medium, 4 h, fluorescence microscope) was “successfully stained PAO1 biofilms”. Besides, the “Retention at biofilm after wash” value (after 4 h accumulation at 500 nM, 30 min wash, no compound) was “still visible at a lower intensity”.
